Assays:
[1] = tested on: panel of cancer and normal cells; experiment: Quantification of autophagy GFP-LC3 puncta in cell panel; assay type: cell-based; settings: fluorescent microscopy
Procedure: (§1) GFP-LC3 puncta formation was quantified as previously described^15. In brief, cells grown on coverslips in a 6-well plate were treated with or without 10 μM of N-desmethyldauricine for 4 hours, the cells were then fixed in 4% paraformaldehyde for 20 minutes at room temperature and then rinsed with PBS. Slides were mounted with FluorSave™ mounting media (Calbiochem, San Diego, Calif.) and examined by fluorescence microscopy. The number of GFP-positive cells with GFP-LC3 puncta formation was examined under the Nikon ECLIPSE 80i microscope. Representative images were captured with CCD digital camera Spot RT3™ (Diagnostic Instruments, Inc., Melville, N.Y.). To quantify for autophagy, the percentage of cells with punctate GFP-LC3 fluorescence was calculated by counting the number of the cells with punctate GFP-LC3 fluorescence in GFP-positive cells. A minimum of 150 cells from 3 randomly selected fields was scored.

[2] = tested on: HeLa cancer cells; experiment: Transmission electron microscopy of autophagosomes/autolysosomes; assay type: cell-based, human; settings: treated HeLa cancer cells
Text: N-desmethyldauricine treated HeLa cells were fixed overnight with 2.5% glutaraldehyde followed by a buffer wash. Samples were post-fixed in 1% OsO4 and embedded in Araldite 502. Ultrathin sections were double stained with uranyl acetate and lead citrate, and analyzed by Philips CM 100 transmission electron microscope at a voltage of 80 kV.

[3] = tested on: autophagy deficient cells (Atg7−/−); experiment: Annexin V flow cytometry cell death, Atg7 deficient MEFs; assay type: cell-based, mouse; settings: 10 μM, 24 h
Procedure: Cell viability was measured using an annexin V staining kit (BD Biosciences, San Jose, Calif., USA). Briefly, Atg7 wild-type (Atg7^+/+ or Atg7-wt) and Atg7 deficient (Atg7^−/− or Atg7-ko) mouse embryonic fibroblasts (MEFs) were treated with the 10 μM N-desmethyldauricine for 24 h. Cells were then harvested and analysed by multiparametric flow cytometry using FITC-Annexin V and Propidium iodide staining (BD Biosciences, San Jose, Calif., USA) according to the manufacturer's instructions. Flow cytometry was then carried out using a FACSCalibur flow cytometer (BD Biosciences, San Jose, Calif., USA). Data acquisition and analysis was performed with CellQuest (BD Biosciences, San Jose, Calif., USA). Data were obtained from three independent experiments.

[4] = tested on: HeLa cancer cells; experiment: Quantification of autophagy GFP-LC3 puncta in HeLa; assay type: cell-based, human; settings: 10 μM, 4 hours, compared to DMSO control
Procedure: as §1

[5] = tested on: panel of human cancer cells; experiment: MTT cytotoxicity assay, panel of human cancer cells; assay type: cell-based; settings: 72 hours, read-out: mean IC50, cell cytotoxicity
Procedure: The test compound of N-desmethyldauricine was dissolved in DMSO at a final concentration of 100 mmol/L and stored at −20° C. Cytotoxicity was assessed using the 3-(4,5-dimethylthiazol-2-yl)-2,5-diphenyltetrazolium bromide assay as previously described^17. Cell number, 4000-8000 of HeLa (human cervical cancer), MCF-7 (human breast cancer), HepG2 (human liver cancer), Hep3B (human liver cancer), H1299 (human lung cancer), A549 (human lung cancer), PC3 (human prostate cancer), LLC-1 (mouse Lewis lung carcinoma) and LO2 (human normal liver) cells were seeded on 96-well plates per well, respectively. After overnight pre-incubation, the cells were exposed to different concentrations of N-desmethyldauricine (namely […], 0.039 μmol) for 3 days. Subsequently, 10 μL of MTT reagents was added to each well and incubated at 37° C. for 4 hours followed by the addition of 100 μL solubilization buffer (10% SDS in 0.01 mol/L HCl) and overnight incubation. Absorbance at 585 nm was determined from each well on the following day. The percentage of cell viability was calculated using the following formula: Cell viability (%)=Cells number treated/Cells number DMSO control×100. Data was obtained from three independent experiments.

[6] = tested on: Atg7-knockout (Atg7−/−) mouse embryonic fibroblasts; experiment: GFP-LC3 puncta in Atg7 deficient MEFs; assay type: cell-based
Procedure: as §1, with “brief, both Atg7 wild-type and deficient mouse embryonic fibroblasts (MEFs)” for “brief, cells”, “with indicated concentrations” for “with or without 10 μM”, “of N-desmethyldauricine. Both Atg7 wild-type and deficient mouse embryonic fibroblasts” for “of N-desmethyldauricine for 4 hours, the cells”

[7] = biological target: T1, SERCA1A (Oryctolagus cuniculus, UniProt P04191); experiment: Measurement of SERCA Ca2+ ATPase activity; assay type: biochemical; settings: rabbit skeletal muscle SR, dose-dependent
T1 construct: Purified Ca^2+ ATPase (SERCA1A) is prepared from female rabbit hind leg muscle; from tissue; host or cells: female rabbit hind leg skeletal muscle (sarcoplasmic reticulum)
Procedure: Purified Ca^2+ ATPase (SERCA1A) is prepared from female rabbit hind leg muscle^24. ATPase activity is determined using the enzyme-coupled method utilizing pyruvate kinase and lactate dehydrogenase as previously described in Michelangeli et al. (1990)^25. All SERCA inhibition data is fitted to the allosteric dose versus effect equation using Fig P (Biosoft):
Activity=minimum activity+(maximum activity−minimum activity)/(1+([I]IC50)P).
In molecular docking, 5000 poses were generated during the initial phase of the docking calculation, out of which the best 1000 poses were chosen for energy minimization by 1000 steps of conjugate gradient minimizations. The performance of molecular docking was evaluated by comparing the docked pose with the experimental structure for N-desmethyldauricine in the X-ray co-crystallized complex. TG in the X-ray co-crystallized complexes was re-docked into the binding sites and the RMSD for re-docked result of TG is 1.78 Å. […] To ascertain whether the SERCA pump is suppressed by N-desmethyldauricine, SERCA inhibitory effect is quantified using purified rabbit skeletal muscle sarcoplasmic reticulum (SR) membranes to measure the expression of the SERCA1A isoform by the SR membrances^26. Most of the existing SERCA inhibitors show similar inhibitory effect in SERCA isoform ^15,16. […]

[8] = tested on: wild type Atg7 cells (Atg7+/+) mouse embryonic fibroblasts; experiment: GFP-LC3 puncta in Atg7 wild-type MEFs; assay type: cell-based
Procedure: as §1, with “brief, both Atg7 wild-type and deficient mouse embryonic fibroblasts (MEFs)” for “brief, cells”, “with indicated concentrations” for “with or without 10 μM”, “of N-desmethyldauricine. Both Atg7 wild-type and deficient mouse embryonic fibroblasts” for “of N-desmethyldauricine for 4 hours, the cells”

T1 sequence (P04191 1-994 isoform P04191-2): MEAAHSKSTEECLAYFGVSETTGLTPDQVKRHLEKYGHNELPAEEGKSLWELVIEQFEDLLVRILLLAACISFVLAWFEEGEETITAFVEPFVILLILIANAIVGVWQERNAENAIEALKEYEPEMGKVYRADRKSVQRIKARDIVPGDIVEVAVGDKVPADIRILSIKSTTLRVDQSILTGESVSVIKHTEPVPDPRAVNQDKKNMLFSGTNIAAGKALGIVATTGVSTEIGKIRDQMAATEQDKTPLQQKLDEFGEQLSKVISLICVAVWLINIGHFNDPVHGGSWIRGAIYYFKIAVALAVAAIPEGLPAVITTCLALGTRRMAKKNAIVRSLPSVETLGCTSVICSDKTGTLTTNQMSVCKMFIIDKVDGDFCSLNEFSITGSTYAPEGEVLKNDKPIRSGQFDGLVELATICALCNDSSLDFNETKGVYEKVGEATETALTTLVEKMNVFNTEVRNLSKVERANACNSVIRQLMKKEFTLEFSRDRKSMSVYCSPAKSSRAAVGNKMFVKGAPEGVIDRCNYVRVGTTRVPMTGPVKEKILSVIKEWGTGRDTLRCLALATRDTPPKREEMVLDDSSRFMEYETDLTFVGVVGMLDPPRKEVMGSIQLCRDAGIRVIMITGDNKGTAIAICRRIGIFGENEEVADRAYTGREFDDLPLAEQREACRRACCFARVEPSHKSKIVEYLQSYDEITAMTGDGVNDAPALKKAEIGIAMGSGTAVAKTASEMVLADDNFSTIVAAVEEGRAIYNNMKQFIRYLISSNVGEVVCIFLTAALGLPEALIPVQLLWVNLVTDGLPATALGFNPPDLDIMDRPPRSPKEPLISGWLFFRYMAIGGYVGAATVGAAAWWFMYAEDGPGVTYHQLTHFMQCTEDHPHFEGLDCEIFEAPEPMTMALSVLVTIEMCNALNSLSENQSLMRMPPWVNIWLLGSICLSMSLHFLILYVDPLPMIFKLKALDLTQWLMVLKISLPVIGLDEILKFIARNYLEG

In the case of `COc1cc2c(cc1OC)[C@@H](Cc1ccc(Oc3cc(C[C@H]4NCCc5cc(OC)c(OC)cc54)ccc3O)cc1)N(C)CC2` [N-desmethyldauricine], the GFP-LC3 puncta formation [1] is reported as “increased”, the “autophagosomes/autolysosomes by electron microscopy” value [2] is reported as “found” and the cell death [3] is reported as “not”. For the same molecule, the GFP-LC3 puncta formation [4] was “significantly induced”, the IC50 [5] was 8.23 to 19.7 µM and the GFP-LC3 puncta formation [6] was “not”. For the same molecule, the “Ca2+ ATPase activity of SERCA” value [7] was “inhibited” and the GFP-LC3 puncta formation [8] was “induce GFP-LC3 puncta formation”.

— US20150133492A1, “N-desmethyldauricine, A Novel Autophagic Enhancer for Treatment of Cancers and Neurodegenerative Conditions Thereof” (Macau University of Science and Technology, priority 2013, published 2015)
